Test results taken from a melting point compilation (Tetko et al.; mined from patent text by program, amines drawn as free bases though some values may be those of a salt).

Q: With `O=C(CSc1nc2ccccc2[nH]1)c1ccc(Br)cc1` as the compound, how does the melting point read?
A: 241 to 245 °C

Q: Which melting point does the source give for `COCCN(C)c1c(S(=O)(=O)C(F)(F)F)c(C#N)nn1-c1c(Cl)cc(C(F)(F)F)cc1Cl` here?
A: 75 °C

Q: Which melting point does the source give for `Cc1ncccc1-c1cncc(OC2SCC(O)C(O)C2O)c1` (configuration not stated) here?
A: 204 to 207 °C

Q: For `CC(c1ccnc(N)c1)C(O)(Cn1cncn1)c1ccc(F)cc1F` (configuration not stated), which melting point is on record?
A: 182 to 185 °C

Q: With `O=C(O)c1ccc(COCc2csc3nc(C(=O)NCc4cccc(C(F)(F)F)c4)[nH]c(=O)c23)cc1` as the compound, how does the melting point read?
A: 261 to 263 °C

Q: With `COc1cc(C(C)=O)ccc1OCCCN1CCN(c2n[nH]c3cc(Cl)ccc23)CC1` as the compound, how does the melting point read?
A: 132 to 134 °C

Q: Which melting point does the source give for `CCOC(=O)c1cn(C(C)C(=O)c2ccccc2)c2nc(-c3ccccc3)c(C)n2c1=O` (configuration not stated) here?
A: 177 to 178 °C

Q: For `N#CCC(=O)NCc1ccccc1Cl`, which melting point is on record?
A: 102 to 104 °C

Q: With `COC(=O)c1ccc(OCc2ccc(Cl)cc2)cc1O` as the compound, how does the melting point read?
A: 119 to 121 °C

Q: For `O=C(Nc1ccccc1)c1ccc(OC(F)(F)F)c(Nc2cccc(C(F)(F)F)c2)c1`, which melting point is on record?
A: 129 to 130 °C

Q: With `COC(=O)CSCC1Cn2cc(C(=O)NCc3ccc(Cl)cc3)c(=O)c3cc(CN4CCOCC4)cc(c32)O1` (configuration not stated) as the compound, how does the melting point read?
A: 182 to 183 °C

Q: Which melting point does the source give for `CCOC(=O)c1cnn(-c2ccccn2)c1S(=O)(=O)NC(=O)Nc1nc(OC)cc(OC)n1` here?
A: 140 to 142 °C

Q: With `Oc1ccc2nc(-c3ccc(O)c(F)c3)cc(-c3ccc(F)cc3)c2c1` as the compound, how does the melting point read?
A: 240 to 243 °C

Q: For `O=c1[nH]c2c(O)cccc2n1CCN1CCN(c2cccc(C(F)(F)F)c2)CC1`, which melting point is on record?
A: 110 °C

Q: For `ICC(c1ccccc1)c1ccccc1`, which melting point is on record?
A: 76 to 78 °C

Q: For `Fc1cccc2[nH]cc(C3CCC4(CC3)OCCO4)c12`, which melting point is on record?
A: 161 to 162 °C

Q: Which melting point does the source give for `CCCC1=C(C(=O)OCC)C(c2ccccc2S(C)=O)c2c[nH]nc2N1` (configuration not stated) here?
A: 216 °C

Q: With `C[Si](C)(C)C#Cc1cnc(C(F)(F)F)nc1` as the compound, how does the melting point read?
A: 75.5 to 76 °C

Q: With `O=S(=O)(NCC(c1ccccc1)c1ccc(O)cc1)c1ccccc1` (configuration not stated) as the compound, how does the melting point read?
A: 120 to 124 °C

Q: With `Cc1ccc(S(=O)(=O)NC(Cc2ccccc2)C(=O)Nc2c(C(C)C)cccc2C(C)C)cc1` (configuration not stated) as the compound, how does the melting point read?
A: 183 to 184 °C

Q: For `O[C@@H](CNCCOc1ccc2oc(-c3ccon3)cc2c1)COc1ccccc1`, which melting point is on record?
A: 107 to 110 °C

Q: For `Cc1ccc(S(=O)(=O)N(C)NC(=O)c2c(F)cccc2Cl)cc1`, which melting point is on record?
A: 135 to 136 °C

Q: With `CCCCC(CC)n1nnc2c(Nc3c(Br)cc(OC)cc3OC)nc(C)cc21` (configuration not stated) as the compound, how does the melting point read?
A: 127 to 128 °C

Q: With `O=C(CC[C@@H](C(=O)OCc1ccccc1)n1c2ccccc2c2ccccc21)OCCOC(=O)c1ccc(NC(=O)OCc2ccccc2)cc1` as the compound, how does the melting point read?
A: 45 °C

Q: Which melting point does the source give for `CCCCCCCCCCCCSCCO` here?
A: 31 to 32 °C

Q: For `CCN1CCN(CCCN2CC[C@H](NC(=O)c3cc(Cl)c(N)cc3OC)[C@H](OC)C2)C1=O` (relative stereo), which melting point is on record?
A: 113 °C

Q: For `C#CCn1c(=O)[nH]c(=O)n(-c2cc(N3C(=O)C4=C(CCCC4)C3=O)c(F)cc2Cl)c1=O`, which melting point is on record?
A: 127 to 135 °C

Q: For `CC(C)(C)N(NC(=S)c1ccc(Cl)cc1)C(=O)c1ccccc1`, which melting point is on record?
A: 160 to 162 °C

Q: Which melting point does the source give for `CCOC(=O)C(Cc1cc2cccnc2n(-c2cccc([N+](=O)[O-])c2)c1=O)C(=O)c1ccncc1` (configuration not stated) here?
A: 72 to 73 °C

Q: Which melting point does the source give for `O=S(=O)(c1ccccc1)S(=O)(=O)c1ccccc1` here?
A: 142 to 144 °C

Q: Which melting point does the source give for `CCCCNS(=O)(=O)CC(O)C(O)C(CC1CCCCC1)NC(=O)c1cnccn1` (configuration not stated) here?
A: 178 to 180 °C

Q: With `COc1cc(N2C(=O)C3(CC3)[C@@H](O)[C@@H]2C)ccc1C#N` as the compound, how does the melting point read?
A: 167 to 169 °C

Q: For `CN1CCOc2ccc(N)cc2C1=O`, which melting point is on record?
A: 165 °C

Q: With `Cc1c(C(=O)N[C@H](C)[C@](O)(Cn2cncn2)c2ccc(F)cc2F)cnn1-c1ccc(OC(F)(F)F)cc1` as the compound, how does the melting point read?
A: 134 to 135 °C

Q: For `CN(C)C=NS(=O)(=O)c1cc(CCNC(=O)C(F)(F)F)ccc1OCC(F)(F)F`, which melting point is on record?
A: 130 °C

Q: With `CCOc1nn(C(=O)NS(=O)(=O)c2ccccc2N2CCCC2)c(=O)n1C` as the compound, how does the melting point read?
A: 68 °C

Q: Which melting point does the source give for `COC(=O)C(C)Oc1cc(C)ccc1COc1ccc([N+](=O)[O-])c(F)c1` (configuration not stated) here?
A: 92 to 94 °C
